{
  "source": "ChEMBL document CHEMBL6096732",
  "about": "(J Med Chem, 2025)",
  "key": {"[1]": {"target": "Histone deacetylase 1 (Homo sapiens, UniProt Q13547)", "sequence (Q13547 whole entry)": "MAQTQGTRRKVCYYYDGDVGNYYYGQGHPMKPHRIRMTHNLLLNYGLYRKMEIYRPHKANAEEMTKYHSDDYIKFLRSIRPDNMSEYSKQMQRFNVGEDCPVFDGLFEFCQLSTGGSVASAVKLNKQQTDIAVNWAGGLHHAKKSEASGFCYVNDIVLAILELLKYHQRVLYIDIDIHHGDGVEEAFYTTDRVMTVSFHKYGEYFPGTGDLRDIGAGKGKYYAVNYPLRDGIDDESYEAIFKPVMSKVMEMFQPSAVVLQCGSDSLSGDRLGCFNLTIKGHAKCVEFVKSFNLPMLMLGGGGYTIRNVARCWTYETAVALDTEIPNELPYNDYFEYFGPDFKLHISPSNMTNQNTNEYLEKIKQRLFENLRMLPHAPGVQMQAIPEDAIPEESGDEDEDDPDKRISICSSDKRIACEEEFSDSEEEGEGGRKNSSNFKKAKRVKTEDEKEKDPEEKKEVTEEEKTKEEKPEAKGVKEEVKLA", "experiment": "Inhibition of recombinant HDAC1 (unknown origin) using Boc-Lys(acetyl)-AMC as substrate preincubated for 1 hr followed by substrate addition and measured after 2 hrs by fluorescence based micro plate reader analysis"}, "[2]": {"target": "Histone deacetylase 4 (Homo sapiens, UniProt P56524)", "sequence (P56524 whole entry)": "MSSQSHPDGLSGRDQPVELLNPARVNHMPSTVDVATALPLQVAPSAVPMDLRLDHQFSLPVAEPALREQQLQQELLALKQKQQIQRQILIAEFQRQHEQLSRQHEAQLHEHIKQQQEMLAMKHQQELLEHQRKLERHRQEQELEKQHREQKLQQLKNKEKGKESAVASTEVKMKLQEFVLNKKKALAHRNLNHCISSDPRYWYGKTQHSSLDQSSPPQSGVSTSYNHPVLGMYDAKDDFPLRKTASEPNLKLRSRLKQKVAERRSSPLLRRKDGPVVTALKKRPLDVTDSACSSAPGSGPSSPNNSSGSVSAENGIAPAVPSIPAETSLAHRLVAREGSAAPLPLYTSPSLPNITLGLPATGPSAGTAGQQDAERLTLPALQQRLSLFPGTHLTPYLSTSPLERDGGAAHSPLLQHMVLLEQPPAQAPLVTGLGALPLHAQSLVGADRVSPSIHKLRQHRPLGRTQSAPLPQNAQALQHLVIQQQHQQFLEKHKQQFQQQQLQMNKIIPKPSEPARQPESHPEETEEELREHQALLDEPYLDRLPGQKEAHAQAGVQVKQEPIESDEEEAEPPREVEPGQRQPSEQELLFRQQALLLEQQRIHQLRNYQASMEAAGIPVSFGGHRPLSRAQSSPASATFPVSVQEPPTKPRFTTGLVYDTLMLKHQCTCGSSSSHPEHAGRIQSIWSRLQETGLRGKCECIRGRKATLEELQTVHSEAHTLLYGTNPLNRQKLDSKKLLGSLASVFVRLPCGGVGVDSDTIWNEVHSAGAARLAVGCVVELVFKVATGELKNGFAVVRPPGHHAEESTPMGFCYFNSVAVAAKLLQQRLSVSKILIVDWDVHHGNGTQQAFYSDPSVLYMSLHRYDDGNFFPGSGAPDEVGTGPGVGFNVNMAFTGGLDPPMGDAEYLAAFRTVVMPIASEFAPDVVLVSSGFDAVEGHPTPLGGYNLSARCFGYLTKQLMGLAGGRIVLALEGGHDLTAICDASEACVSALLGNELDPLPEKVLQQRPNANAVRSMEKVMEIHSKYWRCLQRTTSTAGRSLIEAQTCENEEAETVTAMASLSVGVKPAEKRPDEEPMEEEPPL", "experiment": "Inhibition of recombinant HDAC4 (unknown origin) using Boc-Lys(trifluoroacetyl)-AMC as substrate preincubated for 1 hr followed by substrate addition and measured after 2 hrs by fluorescence based micro plate reader analysis"}, "[3]": {"target": "Polyamine deacetylase HDAC10 (Homo sapiens, UniProt Q969S8)", "sequence (Q969S8 whole entry)": "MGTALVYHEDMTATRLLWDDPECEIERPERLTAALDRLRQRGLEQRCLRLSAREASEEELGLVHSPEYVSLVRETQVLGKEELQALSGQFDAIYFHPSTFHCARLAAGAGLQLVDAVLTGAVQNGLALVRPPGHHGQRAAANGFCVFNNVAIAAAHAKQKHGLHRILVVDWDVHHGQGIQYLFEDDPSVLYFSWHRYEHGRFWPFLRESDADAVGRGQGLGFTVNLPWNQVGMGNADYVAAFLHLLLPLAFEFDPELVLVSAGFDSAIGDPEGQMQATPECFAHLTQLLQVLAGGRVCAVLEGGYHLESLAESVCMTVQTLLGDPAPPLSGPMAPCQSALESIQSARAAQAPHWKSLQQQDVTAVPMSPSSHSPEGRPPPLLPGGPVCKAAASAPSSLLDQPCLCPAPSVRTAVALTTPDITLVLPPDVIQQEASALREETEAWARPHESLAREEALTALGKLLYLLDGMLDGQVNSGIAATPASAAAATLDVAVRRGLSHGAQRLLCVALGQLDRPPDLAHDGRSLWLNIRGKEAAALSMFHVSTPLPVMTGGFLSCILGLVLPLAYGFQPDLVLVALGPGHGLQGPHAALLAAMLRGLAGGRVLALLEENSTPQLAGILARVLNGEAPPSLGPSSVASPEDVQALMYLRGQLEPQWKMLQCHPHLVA", "experiment": "Inhibition of recombinant HDAC10 (unknown origin) preincubated for 1 hr followed by substrate addition and measured after 2 hrs by fluorescence based micro plate reader analysis"}, "[4]": {"system": "B16-F10", "experiment": "cells", "assay_type": "functional, cell-based", "conditions": "Mus musculus, B16-F10, 72 h", "description": "Antiproliferative activity against mouse B16-F10 cells assessed as inhibition of cell growth incubated for 72 hrs by MTT assay"}, "[5]": {"system": "B16-F10", "experiment": "Inhibition of cell migration in mouse B16-F10 cells assessed as wound area at 5 uM incubated for 24 hrs by wound healing assay (reference value: 50.36 +/- 1.68 %)", "assay_type": "functional", "parameters": "scale not given: the % may be the effect or the level left"}, "[6]": {"system": "B16-F10", "experiment": "Induction of apoptosis in mouse B16-F10 cells assessed as increase in apoptotic cells at 5 uM incubated for 48 hrs by Annexin V-FITC/PI staining based flow cytometric analysis relative to control", "assay_type": "functional"}, "[7]": {"system": "B16-F10", "experiment": "Induction of apoptosis in mouse B16-F10 cells assessed as increase in apoptotic cells at 10 uM incubated for 48 hrs by Annexin V-FITC/PI staining based flow cytometric analysis relative to control", "assay_type": "functional"}, "[8]": {"system": "B16-F10", "experiment": "Cell cycle arrest in mouse B16-F10 cells assessed as decrease in G2/M phase population at 5 to 20 uM incubated for 48 hrs by RNase A/PI staining based flow cytometric analysis", "assay_type": "functional", "conditions": "dose 5-20 µM"}, "[9]": {"target": "T1, Histone deacetylase 3 (Mus musculus) (UniProt O88895)", "T1 sequence (whole entry)": "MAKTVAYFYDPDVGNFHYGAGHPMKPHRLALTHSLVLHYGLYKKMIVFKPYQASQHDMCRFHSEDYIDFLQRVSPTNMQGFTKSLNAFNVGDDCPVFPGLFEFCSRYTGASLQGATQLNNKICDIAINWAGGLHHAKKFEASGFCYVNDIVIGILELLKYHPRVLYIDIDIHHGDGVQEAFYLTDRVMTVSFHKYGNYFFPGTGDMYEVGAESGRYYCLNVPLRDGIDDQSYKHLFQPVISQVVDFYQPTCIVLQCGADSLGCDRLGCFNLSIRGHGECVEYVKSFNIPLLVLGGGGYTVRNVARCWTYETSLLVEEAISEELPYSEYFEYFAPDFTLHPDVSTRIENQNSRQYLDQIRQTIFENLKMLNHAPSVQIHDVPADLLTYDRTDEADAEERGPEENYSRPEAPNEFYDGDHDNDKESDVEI", "experiment": "Inhibition of HDAC3 in mouse B16-F10 cells assessed as increase in histone H3 acetylation level at 5 to 20 uM incubated for 24 hrs by Western blot analysis", "assay_type": "cell-based", "conditions": "dose 5-20 µM"}, "[10]": {"target": "Programmed cell death 1 ligand 1 (Mus musculus) (UniProt Q9EP73)", "sequence (Q9EP73 whole entry)": "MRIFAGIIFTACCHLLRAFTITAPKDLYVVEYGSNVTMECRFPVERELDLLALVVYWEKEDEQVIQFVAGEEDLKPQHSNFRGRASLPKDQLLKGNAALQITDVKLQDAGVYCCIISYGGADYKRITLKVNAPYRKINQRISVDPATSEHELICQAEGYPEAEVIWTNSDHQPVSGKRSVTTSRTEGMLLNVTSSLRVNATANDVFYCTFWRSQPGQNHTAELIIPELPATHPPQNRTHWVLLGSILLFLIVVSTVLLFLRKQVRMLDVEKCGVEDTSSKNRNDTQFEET", "experiment": "Induction of PD-L1 degradation in mouse B16-F10 cells assessed as decrease in PD-L1 protein level by measuring maximal efficacy at 10 uM incubated for 24 hrs by Western blot analysis relative to control", "assay_type": "cell-based"}, "[11]": {"target": "Programmed cell death 1 ligand 1 (Mus musculus) (UniProt Q9EP73)", "experiment": "Induction of PD-L1 degradation in mouse B16-F10 cells assessed as decrease in PD-L1 protein level at 5 uM preincubated with bafilomycin A1 for 4 hrs followed by compound addition and measured after 24 hrs by Western blot analysis", "assay_type": "cell-based"}, "[12]": {"target": "Programmed cell death 1 ligand 1 (Mus musculus) (UniProt Q9EP73)", "experiment": "Induction of PD-L1 degradation in mouse B16-F10 cells assessed as decrease in PD-L1 protein level at 5 uM preincubated with MG132 for 4 hrs followed by compound addition and measured after 24 hrs by Western blot analysis", "assay_type": "cell-based"}, "[13]": {"target": "T1, Histone deacetylase 3 (Mus musculus)", "experiment": "Inhibition of HDAC3 in mouse B16-F10 cells assessed as increase in acetylated histone H3 level at 5 uM incubated for 24 hrs by DAPI staining based immunofluorescence analysis", "assay_type": "cell-based"}, "[14]": {"system": "B16-F10", "experiment": "Downregulation of PARP1 expression in mouse B16-F10 cells at 2 uM incubated for 24 hrs by Western blot analysis", "assay_type": "functional, cell-based"}, "[15]": {"system": "B16-F10", "experiment": "Downregulation of PARP1 expression in mouse B16-F10 cells at 2 uM incubated for 24 hrs in presence of olaparib by Western blot analysis", "assay_type": "functional, cell-based"}, "[16]": {"system": "4T1", "experiment": "Downregulation of PARP1 expression in mouse 4T1 cells at 5 uM by DAPI staining based immunofluorescence analysis", "assay_type": "functional, cell-based"}, "[17]": {"system": "4T1", "experiment": "Induction of DNA damage in mouse 4T1 cells assessed as upregulation of nuclear gamma-H2AX expression at 5 uM by DAPI staining based immunofluorescence analysis", "assay_type": "functional, cell-based"}, "[18]": {"experiment": "Retention time of compound by HPLC analysis", "assay_type": "physicochemical"}, "[19]": {"experiment": "AUMC (0 to infinity) in male Sprague-Dawley rat at 2 mg/kg, iv measured after 12 hrs by LC-MS/MS analysis", "assay_type": "ADME, organism-based", "conditions": "in vivo"}, "[20]": {"experiment": "MRT (0 to t) in male Sprague-Dawley rat at 2 mg/kg, iv measured after 12 hrs by LC-MS/MS analysis", "assay_type": "ADME, organism-based", "conditions": "in vivo"}, "[21]": {"experiment": "Cmax in male Sprague-Dawley rat at 2 mg/kg, iv measured after 12 hrs by LC-MS/MS analysis", "assay_type": "ADME, organism-based", "conditions": "in vivo"}, "[22]": {"experiment": "VRT (0 to infinity) in male Sprague-Dawley rat at 20 mg/kg, po measured after 12 hrs by LC-MS/MS analysis", "assay_type": "ADME, organism-based", "conditions": "in vivo"}, "[23]": {"experiment": "Cmax in male Sprague-Dawley rat at 20 mg/kg, po measured after 12 hrs by LC-MS/MS analysis", "assay_type": "ADME, organism-based", "conditions": "in vivo"}, "[24]": {"experiment": "Toxicity in male C57BL/6 mouse implanted with mouse B16-F10 cells assessed as histopathological changes in liver at 50 mg/kg, po administered once daily for 14 days by HandE staining based microscopic analysis", "assay_type": "organism-based", "conditions": "in vivo, 336 h, time 14 day"}, "[25]": {"experiment": "Toxicity in male C57BL/6 mouse implanted with mouse B16-F10 cells assessed as histopathological changes in heart at 50 mg/kg, po co-administered with NP-19 as once daily dosage via gavage for 14 days by HandE staining based microscopic analysis", "assay_type": "organism-based", "conditions": "in vivo, 336 h, time 14 day"}, "[26]": {"system": "Mus musculus", "experiment": "Immunomodulatory activity in male C57BL/6 mouse model implanted with mouse B16-F10 cells assessed as increase in CD3+ CD8+ T cells in tumor at 50 mg/kg, po administered once daily for 14 days by flow cytometric analysis (reference value: 3.2 %)", "assay_type": "functional", "conditions": "time 14 day"}, "[27]": {"system": "4T1", "experiment": "Antitumor activity against mouse 4T1 cells implanted in female BALB/c mouse model assessed as tumor growth inhibition administrated orally as once daily dose via gavage for 14 days relative to control", "assay_type": "functional", "conditions": "route po; time 14 day"}, "[28]": {"system": "4T1", "experiment": "Antitumor activity against mouse 4T1 cells implanted in female BALB/c mouse model assessed as induction of DNA damage by measuring increase in gamma-H2AX fluorescence intensity in tumor co-administrated orally with olaparib as once daily dose via gavage for 14 days by DAPI staining based immunofluorescence analysis", "assay_type": "functional, cell-based", "conditions": "route po, time 14.0 day"}, "[29]": {"system": "4T1", "experiment": "Antitumor activity against mouse 4T1 cells implanted in female BALB/c mouse model assessed as induction of DNA damage by measuring increase in gamma-H2AX expression in tumor co-administrated orally with olaparib as once daily dose via gavage for 14 days by immunohistochemistry analysis", "assay_type": "functional, cell-based", "conditions": "route po, time 14.0 day"}},
  "note": "Active and inactive are the calls of the source. No cut-off for these calls is given here.",
  "data": [
    {"smiles": "CCCNNC(=O)c1ccc(Cn2c3ccccc3c3c(-c4ccccn4)nc4ccccc4c32)cc1", "values": [
      {"measurement": "IC50", "setting": "[1]", "result": 6.8, "unit": "µM"},
      {"measurement": "IC50", "setting": "[2]", "result": "> 10", "unit": "µM"},
      {"measurement": "IC50", "setting": "[3]", "result": "> 10", "unit": "µM"},
      {"measurement": "IC50", "setting": "[4]", "result": 5.56, "unit": "µM"},
      {"measurement": "Activity", "setting": "[5]", "result": 35.33, "unit": "%"},
      {"measurement": "Activity", "setting": "[6]", "result": 25, "unit": "%"},
      {"measurement": "Activity", "setting": "[7]", "result": 44.7, "unit": "%"},
      {"measurement": "Activity", "setting": "[8]", "result": "Active"},
      {"measurement": "inhibition", "setting": "[9]", "result": "Active"},
      {"measurement": "Emax", "setting": "[10]", "result": 85, "unit": "%"},
      {"measurement": "Activity", "setting": "[11]", "result": "Not active; Compound Degrades Pd-L1 Through Lysosomal Pathway"},
      {"measurement": "Activity", "setting": "[12]", "result": "Active"},
      {"measurement": "inhibition", "setting": "[13]", "result": "Active"},
      {"measurement": "Activity", "setting": "[14]", "result": "Active"},
      {"measurement": "Activity", "setting": "[15]", "result": "Active"},
      {"measurement": "Activity", "setting": "[16]", "result": "Active"},
      {"measurement": "Activity", "setting": "[17]", "result": "Active"},
      {"measurement": "Retention_time", "setting": "[18]", "result": 10.16, "unit": "min"},
      {"measurement": "AUMC", "setting": "[19]", "result": 630.022, "unit": "hr.hr.ug/L"},
      {"measurement": "MRT last at 12 h", "setting": "[20]", "result": 44.3, "unit": "min"},
      {"measurement": "Cmax", "setting": "[21]", "result": 1040, "unit": "ng/mL"},
      {"measurement": "VRT", "setting": "[22]", "result": 12.987, "unit": "hr2"},
      {"measurement": "Cmax", "setting": "[23]", "result": 1390, "unit": "ng/mL"},
      {"measurement": "Activity", "setting": "[24]", "result": "Non-toxic"},
      {"measurement": "Activity", "setting": "[25]", "result": "Non-toxic"},
      {"measurement": "Activity", "setting": "[26]", "result": 25, "unit": "%"},
      {"measurement": "TGI", "setting": "[27]", "result": 41, "unit": "%"},
      {"measurement": "Activity", "setting": "[28]", "result": "Active"},
      {"measurement": "Activity", "setting": "[29]", "result": "Active"}
    ]}
  ]
}
